The test system of data set [1] is Wistar Kyoto (WKY) rats. Put plainly: Locomotor activity in the open-field arena, WKY rats. It counts as in vivo, rat. The settings on record: acute, fluoxetine 10 mg/kg i.p., ketamine 30 mg/kg i.p., 3 min, Fig. 5A. The protocol: (§1) After a 6-day period of acclimatization, all experimental groups received daily successive subcutaneous (250 µl per rat) and intraperitoneal (1 ml/kg) injections. WI rats received injection of vehicle (sesame oil + saline) while WKY rats were randomly assigned to […], as follow: KWY rats receiving only vehicle (sesame oil + saline) and WKY rats treated with MAP4343 (10 mg/kg, s.c.; rats received in parallel i.p. injections of saline), fluoxetine (10 mg/kg i.p., rats received in parallel s.c. injections of sesame oil) or ketamine (30 mg/kg, i.p.; rats received in parallel s.c. injections of sesame oil) (see Figure 3).
(§2) After, a 6-day period of acclimatization, the acute phase of treatment started for 4 days during behavioral tests were performed (Figure 3). All animals were injected 1h30 before the starting of behavioral test.
(§3) The animals were individually placed in the open field arena (OFA) (70 x 100 x 70 cm), with a central square (35 x 50 cm), located in a 50 lux illuminated room and videotaped during 3 min using a computerized system (VideoTrack V2.5, ViewPoint, Lyon, France).
(§4) OFA allows firstly the evaluation of total locomotor activity (LMA) thereby measuring the total distance travelled in the arena (in cm). Secondly, measurements of the activity in the center of the arena like (i) the number of entries in the center of arena and (ii) the total time spent in the center of arena (in sec) provide cues of anxiety-like behavior (Prut and Belzung, 2003). All these behavioral parameters were instantaneously measured automatically with the VideoTrack V2.5 software from the videos.

Data set [2] has as its system Wistar Kyoto (WKY) rats. Put plainly: Forced swimming test (FST), WKY rats. The class given is in vivo, rat. The settings on record: acute administration (4 days), MAP4343 10 mg/kg, fluoxetine 10 mg/kg i.p., ketamine 30 mg/kg i.p., Fig. 6C. The method, then: 3B-methoxy-PREG (also referred to as "MAP4343" in Example 4) was dissolved in sesame oil by sonication using a Sonifer-450 (Branson Ultrasonics Corporation, Danbury, USA) during 1 cycle of 5 pulses in sesame oil. Fluoxetine (Biotrend, Köln, Germany) and Ketamine (Sigma-Aldrich, St-Quentin Fallvier, France) were dissolved in sterile saline solution (NaCl 0.9%). The drug formulations were prepared freshly each day of treatment. MAP4343 was administered subcutaneously (ranging of 1-15 mg/Kg/day) while fluoxetine and ketamine were injected intraperitonealy (10 mg/Kg/day and 30 mg/Kg/day, respectively).
After a 6-day period of acclimatization, all experimental groups received daily successive subcutaneous (250 µl per rat) and intraperitoneal (1 ml/kg) injections. […]
Rats were submitted to the forced swimming test (FST), according the procedure initially described by (Detke et al., 1995) and slightly modified by (Bianchi et al., 2002). […] The pre-test and test sessions were recorded using a video camera placed above the cylinder for subsequent behavioral analysis. The immobility time (in sec) was blindly measured by two independent experimenters from recorded videos. […]
The effects of a dose-ranging administration of MAP4343 were tested in WI and WKY rats on their immobility time measured in FST.

Data set [3] relates to Wistar Kyoto (WKY) rats. Put plainly: Anxious-like behavior: activity in the central square of the open-field arena, WKY rats. It counts as in vivo, rat. The settings on record: acute, MAP4343 10 mg/kg s.c., fluoxetine 10 mg/kg i.p., ketamine 30 mg/kg i.p. The method, then:
as §1, §2, §3, §4

The subject of data set [4] is Wistar Kyoto (WKY) rats. The experiment in a line: Elevated-plus maze (EPM), WKY rats. The class given is in vivo, rat. The settings on record: acute, fluoxetine 10 mg/kg, Fig. 5D. The protocol:
as §1, §2
We used the elevated-plus maze (EPM) as an assay of anxiety-related behavior in rodents (Walf and Frye, 2007). Rats were initially placed in the center of the plus-maze, consisting of two open arms (50 x 10 cm) and two closed arms (50 x 10 cm enclosed by 40 cm walls), in a 50 lux illuminated room and videotaped during 5 min using a computerized system (VideoTrack V2.5, ViewPoint, Lyon, France). The time spent in the open versus closed arms was blindly measured by two independent experimenters from the recorded video, and the open arm-index was calculated as follow: time in the open arms (sec) / [time in open arms (sec) + time in closed arms (sec)].

Data set [5] in a line: Body weight of treated WKY rats. It counts as in vivo. The settings on record: fluoxetine 10 mg/kg i.p., 4 days.

This note sets out measurements from patent publication EP3436024B1, “3-BETA-METHOXY-PREG FOR USE IN THE TREATMENT OF TREATMENT RESISTANT DEPRESSION” (Mapreg, priority 2016, dated 2017).

Structures are written as SMILES.

As for `CNCCC(Oc1ccc(C(F)(F)F)cc1)c1ccccc1` (centres unmarked) [fluoxetine], the “locomotor activity (total distance travelled in the open-field arena), change as compared to WKY receiving vehicle” value in the data set on Wistar Kyoto (WKY) rats [1] (MAP4343 10 mg/kg s.c.) is recorded as -45%. Further, in the data set with Wistar Kyoto (WKY) rats [1], the “locomotor activity (total distance travelled in the open-field arena), change as compared to MAP4343-treated WKY” value is -52%. Also, the “immobility time measured in FST, change when compared to WKY rats receiving vehicle alone” value with Wistar Kyoto (WKY) rats [2] is given as “+29%”. Besides, the “number of entries in the central square of OFA, change as compared to WKY receiving only vehicle” value in the data set with Wistar Kyoto (WKY) rats [3] (Fig. 5B) was “failed to significantly modify”. In addition, the “time spent in the center of open-field, change as compared to WKY receiving vehicle” value in the data set with Wistar Kyoto (WKY) rats [3] (Fig. 5C) was “did not induce any significant change”. In addition, the “open-arm (OA) index, change when compared to WKY receiving vehicle alone” value with Wistar Kyoto (WKY) rats [4] (MAP4343 10 mg/kg s.c., ketamine 30 mg/kg i.p.) was -84%. In the data set with Wistar Kyoto (WKY) rats [4], the “open-arm (OA) index, change when compared to MAP4343-treated WKY” value is -95%. In addition, the body weight entry in data set [5] is given as “reduced body weight”.
